The text below walks through data of patent publication US12447159B2 (AELIS FARMA, priority 2018, dated 2025).

Marks after values point to notes of the source that are not given here.

A short description of series [1]: Metabolic profiling of [3H]-3pMBP in plasma and excreta in the rat (Radio-HPLC). Conditions: in vivo. How it is done:
The metabolic profile was evaluated in plasma, in urines and feces and the radio-labelled metabolites were identified by their retention time using Radio-HPLC analysis. The results are expressed as % of the sum of all the detected peak areas.

The subject of series [2] is diet-induced obese (DIO) mouse model. Briefly: Repeated treatment: food intake and body weight in diet-induced obese (DIO) mice. In kind it is in vivo. The following applies: for Inhibition of food-intake and body weight (repeated administration): Effect (Rimonabant): 10 mg/kg. As for the experimental part:
Male C57BL/6J mice were fed ad libitum with a high-fat diet (HFD) for 8 weeks before the start of the pharmacological treatments. During pharmacological treatments, the HFD was maintained and food intake and body weight were measured daily. The food consumed was calculated by subtracting the food left in the hoppers from the initial pre-weighted amount. […] 3pMBP and rimonabant were administered by oral gavage once a day, two hours before the start of the dark phase of the light/dark cycle.

For series [3] the test system is unchanged. The series is described as above. In kind it is in vivo. Conditions: vs vehicle; Rimo 10 mg/kg ip; 3pMBP 0.005-15 mg/kg per os.
For series [4] the following is noted: at doses quite close to the therapeutic dose; cited from earlier work.
The test system of another series is THC dependent mice. Put plainly: Precipitated withdrawal in mice chronically treated with THC. It is filed as in vivo. Conditions: mouse, in vivo. How it is done: The chronic THC regimen (20 mg/kg, twice a day) used in these experiments has been chosen because it mimics heavy marijuana use (Cook et al., 1998) and is considered as a model of cannabinoids dependence in mice (Cutando et al., 2013; Hutcheson et al., 1998). […] From day 1 to 4-5, mice were injected ip with vehicle or THC (20 mg/kg in NaCl 0.9% containing 2% ethanol and 2% Tween80, 10 ml/kg) twice a day. […] All the other animals received the administration of the respective vehicle. […] The dose and schedule of administration of rimonabant chosen for this study has been commonly used to precipitate THC withdrawal in mice (Cook et al. 1998, Hutcheson et al., 1998, Huang et al., 2009).
For the measure of precipitated withdrawal, mice were placed in a novel home cage and a video camera positioned in front of each cage recorded animals' behaviors. Scoring was performed for 1 minute every 5 min-period. Two withdrawal signs were analyzed: paw tremors and head shaking, since they are the most common signs of THC withdrawal observed in mice (Cook et al. 1998, Hutcheson et al., 1998, Lichtman et al., 2001).

Series [5] has as its system anxiety- and depression-related behaviors in mice. Briefly: Repeated administration: anxiety- and depression-related behaviors (elevated plus maze, sucrose preference test). Conditions: for Increase in anxiety and depression related behaviors (repeated administration): Effect (Rimonabant): 28 days, 10 mg/kg. In kind it is in vivo. How it is done:
The EPM apparatus was made of four elevated arms arranged in a cross-like disposition, with two opposite arms being enclosed by walls and the two other arms being open. For all the experiments, after receiving the appropriate treatment mice were placed in the center of the EPM and let free to explore the maze for 5 minutes. The time spent and the number of entries into the open arms and closed arms were measured by an automatic videotracking system. A decrease in the percentages of visits and/or of the time spent in open arms is considered an index of increase in anxiety levels.
The sucrose preference test was performed in the home cage of the mice. Two identical bottles, one containing water and the other one containing a 2%-sucrose solution were placed in the hopper of each home cage. […] The volumes of water and of sucrose solutions drank by the mice were measured over two 1.30 h intervals, the first between 7.00 pm and 8.30 pm and the second between 8.30 pm and 10.00 pm. At each time point, the bottles were weighed and the intake volume was calculated by subtracting the initial bottle weight to the final bottle weight.
At day 26, mice were subjected to the EPM and at day 28 to the sucrose preference test.

A further series has as its system corticosterone. The following applies: from Steiner et al., 2008, cited from earlier work.
Another series deals with T1, progesterone receptor (Homo sapiens, UniProt P06401).
T1 construct: CEREP
T1 sequence (P06401 whole entry): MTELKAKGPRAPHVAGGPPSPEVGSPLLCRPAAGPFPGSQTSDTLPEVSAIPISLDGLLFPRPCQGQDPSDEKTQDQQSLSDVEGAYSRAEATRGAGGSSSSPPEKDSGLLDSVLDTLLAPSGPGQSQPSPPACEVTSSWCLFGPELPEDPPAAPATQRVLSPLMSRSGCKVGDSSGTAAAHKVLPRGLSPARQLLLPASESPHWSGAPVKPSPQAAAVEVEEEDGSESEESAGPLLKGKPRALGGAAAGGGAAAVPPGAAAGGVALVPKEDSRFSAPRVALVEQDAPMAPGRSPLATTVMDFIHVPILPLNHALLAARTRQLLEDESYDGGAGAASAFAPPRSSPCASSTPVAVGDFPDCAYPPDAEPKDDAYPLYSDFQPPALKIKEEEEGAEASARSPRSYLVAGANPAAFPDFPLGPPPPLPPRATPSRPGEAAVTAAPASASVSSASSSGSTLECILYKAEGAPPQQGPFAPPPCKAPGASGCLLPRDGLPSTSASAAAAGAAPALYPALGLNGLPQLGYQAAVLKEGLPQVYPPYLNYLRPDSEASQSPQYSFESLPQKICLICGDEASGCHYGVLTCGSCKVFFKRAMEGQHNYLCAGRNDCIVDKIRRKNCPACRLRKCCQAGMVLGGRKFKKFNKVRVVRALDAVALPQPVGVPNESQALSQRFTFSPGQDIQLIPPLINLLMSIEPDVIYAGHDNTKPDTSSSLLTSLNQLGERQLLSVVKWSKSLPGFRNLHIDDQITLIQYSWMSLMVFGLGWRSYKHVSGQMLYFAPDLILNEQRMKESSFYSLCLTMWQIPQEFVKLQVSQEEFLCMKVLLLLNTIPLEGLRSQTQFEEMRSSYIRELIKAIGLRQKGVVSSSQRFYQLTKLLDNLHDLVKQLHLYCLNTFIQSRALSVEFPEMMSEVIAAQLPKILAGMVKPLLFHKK
Briefly: Binding selectivity, ligand displacement. Conditions: 10 μM. An excerpt: (§1) The CEREP High-throughput profile consists of a broad collection of 80 transmembrane and soluble receptors, ion channels and G-Protein coupled receptors.

The target in series [6] is T2, peripheral benzodiazepine receptor (Rattus norvegicus, UniProt P16257).
T2 construct: CEREP
Put plainly: Binding selectivity, ligand displacement. The following applies: 10 μM.
Source text: as §1

The subject of series [7] is central benzodiazepine receptor. Put plainly: Binding selectivity, ligand displacement. Conditions: 10 μM.
Source text: as §1

[8] abbreviates: male mice, listed as rimonabant.
[9] abbreviates: vs reference ID100 for rimonabant effects = 10 mg/kg.
Setting [10] is: 28 days once a day, 3pMBP 0.05, 5, 15 mg/kg per os, Rimo 10 mg/kg ip.

Turning to `COc1ccc(CO[C@H]2CC[C@@]3(C)C(=CC[C@H]4[C@@H]5CC[C@H](C(C)=O)[C@@]5(C)CC[C@@H]43)C2)cc1` [[^3H]-3pMBP], the “Major metabolites in plasma” value in [1] was “does not produce any major metabolites in plasma”.
Take `Cc1c(C(=O)NN2CCCCC2)nn(-c2ccc(Cl)cc2Cl)c1-c1ccc(Cl)cc1` [Rimonabant, rimonabant]: the IC100 in [2] (Rimonabant, male mice) was 10 mg/kg; in the series with THC dependent mice, 10 mg/kg; in series [5] (Rimonabant, male mice), 10 mg/kg; with corticosterone (Rimonabant), 2 mg/kg. In addition, the “Inhibition of food-intake and body weight (repeated administration): Effect (Rimonabant)” value is “Yes” in [2] (male mice); “decreased both food intake and body weight” in [2] (setting [8]). In addition, the “N fold IC100” value in [2] (setting [9]) was 1; in [5] (setting [9]), 1; in the series on corticosterone (vs reference ID100 for rimonabant = 10 mg/kg) it was 0.2^#. For the same compound, the “Food intake in obese mice” value in series [2] (vs vehicle, Rimo 10 mg/kg ip, 3pMBP 0.005-15 mg/kg per os) is listed as “decreases food intake”. In series [3], the “Body weight in obese mice” value is given as “decreases body weight”. Also, in [4], the “Adverse events in GLP safety and toxicity studies” value was “clonic convulsion, hepatotoxicity and several profound alterations in behavior”. Further, the “Percentage of time spent in the open arms of the elevated plus maze” value in series [5] (setting [10]) is on record as “decreases the time spent in open arms”. Also, the “Percentage of visits in the open arms of the elevated plus maze” value in [5] (setting [10]) is recorded as “decreases the percentage of visits in open arms”. Further, in series [5] (setting [10]), the “Sucrose intake (sucrose preference test)” value is “decreases sucrose intake”. In addition, the “Increase in anxiety and depression related behaviors (repeated administration): Effect (Rimonabant)” value is “Yes” in series [5] (male mice); “increased anxiety and depression-related behavior” in [5] (setting [8]). Moreover, in the series with corticosterone (mice), the “Increase in glucocorticoid secretion: Effect (Rimonabant)” value is “Yes”.
Take `CC(=O)[C@H]1CC[C@H]2[C@@H]3CC=C4C[C@@H](O)CC[C@]4(C)[C@H]3CC[C@]12C` [pregnenolone]: the figures for the displacement of binding (at progesterone receptor; in series [6]; in series [7]) were over 80%, over 40% and over 40%, respectively.
